The series in a line: activity coefficient (dimensionless); of the first substance listed, at infinite dilution; xn = mol fraction of the nth substance listed. Particulars: Liquid, Chromatography, x1 = 0.

The structures appear in SMILES notation. ± gives the expanded uncertainty stated by the source.

On to `C#CCCCCCC` [1-octyne] + CCn1cc[n+](C)c1.N#C[B-](C#N)(C#N)C#N, for which the activity coefficient worked out at 8.66 ± 0.59 (298.15 K); 8.48 ± 0.58 (308.15 K); 8.31 ± 0.57 (318.15 K); 8.15 ± 0.56 (328.15 K); 7.99 ± 0.54 (338.15 K); 7.86 ± 0.54 (348.15 K). Moreover, the activity coefficient (358.15 K) amounted to 7.73 ± 0.53.

On to `CCCCO` [butan-1-ol] + CCn1cc[n+](C)c1.N#C[B-](C#N)(C#N)C#N, for which the activity coefficient by setting is: (298.15 K) 2.72 ± 0.19; (308.15 K) 2.41 ± 0.16; (318.15 K) 2.16 ± 0.15; (328.15 K) 1.95 ± 0.13; (338.15 K) 1.79 ± 0.12; (348.15 K) 1.65 ± 0.11. For the setting “358.15 K”, the activity coefficient stood at 1.53 ± 0.1.

Regarding `CCCO` [propan-1-ol] + CCn1cc[n+](C)c1.N#C[B-](C#N)(C#N)C#N, the activity coefficient reads like this: (298.15 K) 2.01 ± 0.14; (308.15 K) 1.81 ± 0.12; (318.15 K) 1.65 ± 0.11; (328.15 K) 1.5 ± 0.1; (338.15 K) 1.39 ± 0.09; (348.15 K) 1.3 ± 0.08. For the same molecule, the activity coefficient (358.15 K) turned out to be 1.21 ± 0.08.

On to `CCO` [ethanol] + CCn1cc[n+](C)c1.N#C[B-](C#N)(C#N)C#N, for which the activity coefficient runs as follows: (298.15 K) 1.58 ± 0.1; (308.15 K) 1.43 ± 0.09; (318.15 K) 1.32 ± 0.09; (328.15 K) 1.21 ± 0.08; (338.15 K) 1.13 ± 0.07; (348.15 K) 1.05 ± 0.07. Besides, for the setting “358.15 K”, the activity coefficient worked out at 0.986 ± 0.062.

`CC(C)CC(C)(C)C` [2,2,4-trimethylpentane] + CCn1cc[n+](C)c1.N#C[B-](C#N)(C#N)C#N: the activity coefficient came out at 60.3 ± 4.1 (298.15 K); 54.3 ± 3.7 (308.15 K); 50.4 ± 3.5 (318.15 K); 46.4 ± 3.2 (328.15 K); 42.3 ± 2.9 (338.15 K); 39.5 ± 2.7 (348.15 K). In addition, the activity coefficient (358.15 K) is 36.7 ± 2.5.

For `C1CCCCCC1` [cycloheptane] + CCn1cc[n+](C)c1.N#C[B-](C#N)(C#N)C#N, the activity coefficient turned out to be 21.9 ± 1.5 (298.15 K); 19.9 ± 1.4 (308.15 K); 18.6 ± 1.3 (318.15 K); 17 ± 1.2 (328.15 K); 15.8 ± 1.1 (338.15 K); 14.8 ± 1 (348.15 K). For the setting “358.15 K”, the activity coefficient was 13.9 ± 1.

In the case of `C#CCCCCC` [1-heptyne] + CCn1cc[n+](C)c1.N#C[B-](C#N)(C#N)C#N, the activity coefficient came to 5.74 ± 0.39 (298.15 K); 5.66 ± 0.39 (308.15 K); 5.58 ± 0.38 (318.15 K); 5.51 ± 0.38 (328.15 K); 5.45 ± 0.37 (338.15 K); 5.39 ± 0.37 (348.15 K). For the same molecule, for the setting “358.15 K”, the activity coefficient amounted to 5.33 ± 0.36.

Turning to `CCCCC(C)=O` [2-hexanone] + CCn1cc[n+](C)c1.N#C[B-](C#N)(C#N)C#N, the activity coefficient amounted to 1.11 ± 0.07 (308.15 K); 1.12 ± 0.07 (318.15 K); 1.14 ± 0.07 (328.15 K); 1.16 ± 0.07 (338.15 K); 1.17 ± 0.07 (348.15 K); 1.09 ± 0.07 (358.15 K).

In the case of `CCCCCCCC` [octane] + CCn1cc[n+](C)c1.N#C[B-](C#N)(C#N)C#N, the activity coefficient turned out to be 83.2 ± 5.7 (298.15 K); 73.6 ± 5 (308.15 K); 67.4 ± 4.6 (318.15 K); 60.2 ± 4.1 (328.15 K); 54.8 ± 3.8 (338.15 K); 50.2 ± 3.4 (348.15 K). The activity coefficient (358.15 K) came to 46 ± 3.1.

With `CCC(C)(C)OC` [2-methoxy-2-methylbutane] + CCn1cc[n+](C)c1.N#C[B-](C#N)(C#N)C#N, the activity coefficient was 4.15 ± 0.28 (298.15 K); 4.19 ± 0.29 (308.15 K); 4.22 ± 0.29 (318.15 K); 4.25 ± 0.29 (328.15 K); 4.28 ± 0.29 (338.15 K); 4.3 ± 0.29 (348.15 K). Also, under “358.15 K”, the activity coefficient is 4.32 ± 0.29.

Take `Cc1ccc(C)cc1` [1,4-dimethylbenzene] + CCn1cc[n+](C)c1.N#C[B-](C#N)(C#N)C#N: the activity coefficient came out at 2.45 ± 0.17 (318.15 K); 2.48 ± 0.17 (328.15 K); 2.5 ± 0.17 (338.15 K); 2.52 ± 0.17 (348.15 K); 2.54 ± 0.17 (358.15 K).

With `c1ccsc1` [thiophene] + CCn1cc[n+](C)c1.N#C[B-](C#N)(C#N)C#N, the activity coefficient reads like this: (298.15 K) 0.938 ± 0.059; (308.15 K) 0.949 ± 0.06; (318.15 K) 0.958 ± 0.06; (328.15 K) 0.966 ± 0.061; (338.15 K) 0.976 ± 0.061; (348.15 K) 0.983 ± 0.062. The activity coefficient (358.15 K) amounted to 0.992 ± 0.062.

Regarding `CCC(=O)CC` [pentan-3-one] + CCn1cc[n+](C)c1.N#C[B-](C#N)(C#N)C#N, the activity coefficient (308.15 K) was determined as 0.798 ± 0.052; the activity coefficient (318.15 K) was determined as 0.821 ± 0.053; the activity coefficient (328.15 K) was 0.842 ± 0.054; the activity coefficient (338.15 K) is 0.861 ± 0.055; the activity coefficient (348.15 K) was determined as 0.883 ± 0.056; the activity coefficient (358.15 K) is 0.771 ± 0.05.

`CCCCCCC` [heptane] + CCn1cc[n+](C)c1.N#C[B-](C#N)(C#N)C#N: the activity coefficient runs as follows: (298.15 K) 53.4 ± 3.7; (308.15 K) 47.9 ± 3.3; (318.15 K) 44.1 ± 3; (328.15 K) 39.9 ± 2.7; (338.15 K) 36.7 ± 2.5; (348.15 K) 34.3 ± 2.3. Further, the activity coefficient (358.15 K) worked out at 31.7 ± 2.2.

On to `C=CCCCC` [hex-1-ene] + CCn1cc[n+](C)c1.N#C[B-](C#N)(C#N)C#N, for which the activity coefficient (298.15 K) worked out at 14.4 ± 1; the activity coefficient (308.15 K) came to 13.5 ± 0.9; the activity coefficient (318.15 K) was 12.9 ± 0.9; the activity coefficient (328.15 K) was determined as 12.2 ± 0.8; the activity coefficient (338.15 K) came to 11.6 ± 0.8; the activity coefficient (348.15 K) turned out to be 11.2 ± 0.8. Moreover, for the setting “358.15 K”, the activity coefficient is 10.6 ± 0.7.

On to `CCc1ccccc1` [ethylbenzene] + CCn1cc[n+](C)c1.N#C[B-](C#N)(C#N)C#N, for which the activity coefficient runs as follows: (298.15 K) 2.6 ± 0.18; (308.15 K) 2.6 ± 0.18; (318.15 K) 2.61 ± 0.18; (328.15 K) 2.61 ± 0.18; (338.15 K) 2.61 ± 0.18; (348.15 K) 2.61 ± 0.18. For the same molecule, the activity coefficient (358.15 K) came out at 2.61 ± 0.18.

Regarding `C=CCCCCCC` [oct-1-ene] + CCn1cc[n+](C)c1.N#C[B-](C#N)(C#N)C#N, the activity coefficient by setting is: (298.15 K) 35 ± 2.4; (308.15 K) 32 ± 2.2; (318.15 K) 29.9 ± 2; (328.15 K) 27.8 ± 1.9; (338.15 K) 25.9 ± 1.8; (348.15 K) 24.5 ± 1.7. The activity coefficient (358.15 K) was 23.1 ± 1.6.

As to `CCCC(=O)CC` [3-hexanone] + CCn1cc[n+](C)c1.N#C[B-](C#N)(C#N)C#N, the activity coefficient (308.15 K) amounted to 1.2 ± 0.08; the activity coefficient (318.15 K) was 1.22 ± 0.08; the activity coefficient (328.15 K) is 1.24 ± 0.08; the activity coefficient (338.15 K) turned out to be 1.25 ± 0.08; the activity coefficient (348.15 K) came to 1.28 ± 0.08; the activity coefficient (358.15 K) was found to be 1.17 ± 0.07.

`Cc1ccccc1C` [1,2-dimethylbenzene] + CCn1cc[n+](C)c1.N#C[B-](C#N)(C#N)C#N: the activity coefficient by setting is: (298.15 K) 2.17 ± 0.15; (308.15 K) 2.18 ± 0.15; (318.15 K) 2.2 ± 0.15; (328.15 K) 2.21 ± 0.15; (338.15 K) 2.22 ± 0.15; (348.15 K) 2.24 ± 0.15. In addition, the activity coefficient (358.15 K) was found to be 2.25 ± 0.15.

Regarding `c1ccccc1` [benzene] + CCn1cc[n+](C)c1.N#C[B-](C#N)(C#N)C#N, the activity coefficient (298.15 K) came out at 1.13 ± 0.07; the activity coefficient (308.15 K) came to 1.15 ± 0.07; the activity coefficient (318.15 K) came to 1.17 ± 0.07; the activity coefficient (328.15 K) came out at 1.18 ± 0.08; the activity coefficient (338.15 K) stood at 1.19 ± 0.08; the activity coefficient (348.15 K) worked out at 1.2 ± 0.08. The activity coefficient (358.15 K) stood at 1.21 ± 0.08.

For `CCCCCCCCCC` [decane] + CCn1cc[n+](C)c1.N#C[B-](C#N)(C#N)C#N, the activity coefficient was 203 ± 14 (298.15 K); 177 ± 12 (308.15 K); 156 ± 11 (318.15 K); 137 ± 9 (328.15 K); 122 ± 8 (338.15 K); 108 ± 7 (348.15 K). Moreover, the activity coefficient (358.15 K) came to 96.7 ± 6.6.

For the molecule `CCCCCC` [hexane] + CCn1cc[n+](C)c1.N#C[B-](C#N)(C#N)C#N, the activity coefficient came out at 33.8 ± 2.3 (298.15 K); 30.7 ± 2.1 (308.15 K); 28.9 ± 2 (318.15 K); 26.3 ± 1.8 (328.15 K); 24.5 ± 1.7 (338.15 K); 23.1 ± 1.6 (348.15 K). The activity coefficient (358.15 K) stood at 21.8 ± 1.5.

With `Cc1cccc(C)c1` [1,3-dimethylbenzene] + CCn1cc[n+](C)c1.N#C[B-](C#N)(C#N)C#N, the activity coefficient came to 2.56 ± 0.17 (308.15 K); 2.58 ± 0.18 (318.15 K); 2.6 ± 0.18 (328.15 K); 2.61 ± 0.18 (338.15 K); 2.63 ± 0.18 (348.15 K); 2.64 ± 0.18 (358.15 K).

On to `C1CCCC1` [cyclopentane] + CCn1cc[n+](C)c1.N#C[B-](C#N)(C#N)C#N, for which the activity coefficient runs as follows: (298.15 K) 10.7 ± 0.7; (308.15 K) 9.9 ± 0.7; (318.15 K) 9.5 ± 0.7; (328.15 K) 8.8 ± 0.6; (338.15 K) 8.4 ± 0.6; (348.15 K) 8 ± 0.5. Moreover, the activity coefficient (358.15 K) amounted to 7.6 ± 0.5.

In the case of `CCCCCCCCC` [nonane] + CCn1cc[n+](C)c1.N#C[B-](C#N)(C#N)C#N, the activity coefficient stood at 131 ± 9 (298.15 K); 114 ± 8 (308.15 K); 102 ± 7 (318.15 K); 90.2 ± 6.2 (328.15 K); 81.1 ± 5.6 (338.15 K); 73.2 ± 5 (348.15 K). The activity coefficient (358.15 K) is 66.3 ± 4.5.

The values are drawn from the NIST ThermoML archive (doi:10.1016/j.jct.2011.02.012).
